In patent US6737383B1, “Herbicidal oxadiazolidines” (priority 1999, dated 2004):

How the values were obtained:
bedstraw = assay: Test B pre/postemergence bedstraw; type: in vivo, Galium aparine; conditions: Preemergence
Summary of the method: (§1)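 Herbicidal effect was estimated by eye on a ten-point control scale after plants spent twelve to sixteen days in a greenhouse following soil or foliar treatment. Foliar sprays targeted plants at one to four leaves; all doses were formulated in a non-phytotoxic solvent with surfactant.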

blackgrass = assay: Test B pre/postemergence blackgrass; type: in vivo, Alopecurus myosuroides
Summary of the method: as §1

surinam grass = assay: Test B pre/postemergence surinam grass; type: in vivo, Brachiaria decumbens
Summary of the method: as §1

cocklebur = assay: Test B pre/postemergence cocklebur; type: in vivo, Xanthium strumarium
Summary of the method: as §1

corn = assay: Test B pre/postemergence corn; type: in vivo, Zea mays
Summary of the method: as §1

crabgrass = assay: Test B pre/postemergence crabgrass; type: in vivo, Digitaria sanguinalis
Summary of the method: as §1

giant foxtail = assay: Test B pre/postemergence giant foxtail; type: in vivo, Setaria faberii
Summary of the method: as §1

morningglory = assay: Test B pre/postemergence morningglory; type: in vivo, Ipomoea hederacea
Summary of the method: as §1

pigweed = assay: Test B pre/postemergence pigweed; type: in vivo, Amaranthus retroflexus
Summary of the method: as §1

rape = assay: Test B pre/postemergence rape; type: in vivo, Brassica napus
Summary of the method: as §1

soybean = assay: Test B pre/postemergence soybean; type: in vivo, Glycine max
Summary of the method: as §1

sugar beet = assay: Test B pre/postemergence sugar beet; type: in vivo, Beta vulgaris
Summary of the method: as §1

velvetleaf = assay: Test B pre/postemergence velvetleaf; type: in vivo, Abutilon theophrasti
Summary of the method: as §1

wheat = assay: Test B pre/postemergence wheat; type: in vivo, Triticum aestivum
Summary of the method: as §1

wild oat = assay: Test B pre/postemergence wild oat; type: in vivo, Avena fatua
Summary of the method: as §1

purple nutsedge = assay: Test B pre/postemergence purple nutsedge; type: in vivo, Cyperus rotundus
Summary of the method: as §1

rice = assay: Test B flood test rice; type: in vivo, Oryza sativa
Summary of the method: (§2)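 Flood test on plants grown to the 2-leaf stage; treated plants kept in greenhouse twelve to sixteen days, then visually rated against controls on a 0 (no effect) to 10 (complete control) scale.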

smallflower flatsedge = assay: Test B flood test smallflower flatsedge; type: in vivo, Cyperus difformis
Summary of the method: as §2

duck salad = assay: Test B flood test duck salad; type: in vivo, Heteranthera limosa
Summary of the method: as §2

bamyardgrass = assay: Test B flood test barnyardgrass; type: in vivo, Echinochloa crus-galli
Summary of the method: as §2

[1] = Postemergence, Rate 31 g/ha, visual rating, scale 0 to 10 (0 no effect, 10 complete control)
[2] = Postemergence, Rate 125 g/ha, scale 0 to 10, 0 is no effect, 10 is complete control
[3] = Postemergence, Rate 250 g/ha, scale 0 to 10, 0 is no effect, 10 is complete control
[4] = Preemergence, Rate 31 g/ha, visual rating, scale 0 to 10 (0 no effect, 10 complete control)
[5] = Preemergence, Rate 62 g/ha, scale 0 to 10 (0 no effect, 10 complete control)
[6] = Preemergence, Rate 125 g/ha, scale of 0 to 10 where 0 is no effect and 10 is complete control
[7] = Preemergence, Rate 250 g/ha, scale of 0 to 10 where 0 is no effect and 10 is complete control
[8] = Rate 62 g/ha, Postemergence, scale of 0 to 10 where 0 is no effect and 10 is complete control
[9] = Rate 31 g/ha, Pre-emergence section (flood test species), scale 0 to 10
[10] = Rate 62 g/ha, flood test species, Pre-emergence, visual evaluation after twelve to sixteen days
[11] = Rate 125 g/ha, under heading Pre-emergence, flood test species, visual evaluation after twelve to sixteen days
[12] = Rate 250 g/ha, Pre-emergence, flood-test species, scale 0 to 10, 0 is no effect, 10 is complete control

CC(C)N(C(=O)n1oc(=O)n([C@@H]2C[C@H]2C)c1=O)c1ccc(F)cc1 (relative stereo) [Compound 392]
Bedstraw plant response rating (bedstraw; Rate 31 g/ha, visual rating, scale 0 to 10 (0 no effect, 10 complete control)): 0
Plant response rating, Bedstraw (bedstraw; Rate 125 g/ha, scale of 0 to 10 where 0 is no effect and 10 is complete control): 8
Bedstraw plant response rating (bedstraw; Rate 250 g/ha, scale of 0 to 10 where 0 is no effect and 10 is complete control): 10
Blackgrass plant response rating (blackgrass; [1]): 7
Plant response rating, Blackgrass (blackgrass; [2]): 10
Plant response rating, Blackgrass (blackgrass; [3]): 10
Blackgrass plant response rating (blackgrass; [4]): 2
Plant response rating, Blackgrass (blackgrass; [5]): 6
Plant response rating, Blackgrass (blackgrass; [6]): 8
Blackgrass plant response rating (blackgrass; [7]): 10
Blackgrass plant response rating (blackgrass; [8]): 7
B. signalgrass plant response rating (surinam grass; [1]): 0
Plant response rating, B. signalgrass (surinam grass; [2]): 5
Plant response rating, B. signalgrass (surinam grass; [3]): 7
B. signalgrass plant response rating (surinam grass; [4]): 0
Plant response rating, B. signalgrass (surinam grass; [5]): 2
Plant response rating, B. signalgrass (surinam grass; [6]): 3
B. signalgrass plant response rating (surinam grass; [7]): 9
B. signalgrass plant response rating (surinam grass; [8]): 1
Cocklebur plant response rating (cocklebur; [1]): 0
Plant response rating, Cocklebur (cocklebur; [2]): 2
Plant response rating, Cocklebur (cocklebur; [3]): 2
Cocklebur plant response rating (cocklebur; [4]): 0
Plant response rating, Cocklebur (cocklebur; [5]): 0
Plant response rating, Cocklebur (cocklebur; [6]): 0
Cocklebur plant response rating (cocklebur; [7]): 0
Cocklebur plant response rating (cocklebur; [8]): 0
Corn plant response rating (corn; [1]): 0
Plant response rating, Corn (corn; [2]): 0
Plant response rating, Corn (corn; [3]): 0
Corn plant response rating (corn; [4]): 0
Plant response rating, Corn (corn; [5]): 0
Plant response rating, Corn (corn; [6]): 3
Corn plant response rating (corn; [7]): 9
Corn plant response rating (corn; [8]): 0
Crabgrass plant response rating (crabgrass; [1]): 1
Plant response rating, Crabgrass (crabgrass; [2]): 2
Plant response rating, Crabgrass (crabgrass; [3]): 7
Crabgrass plant response rating (crabgrass; [4]): 8
Plant response rating, Crabgrass (crabgrass; [5]): 10
Plant response rating, Crabgrass (crabgrass; [6]): 10
Crabgrass plant response rating (crabgrass; [7]): 10
Crabgrass plant response rating (crabgrass; [8]): 2
Giant foxtail plant response rating (giant foxtail; [1]): 7
Plant response rating, Giant foxtail (giant foxtail; [2]): 9
Plant response rating, Giant foxtail (giant foxtail; [3]): 9
Giant foxtail plant response rating (giant foxtail; [4]): 10
Plant response rating, Giant foxtail (giant foxtail; [5]): 10
Plant response rating, Giant foxtail (giant foxtail; [6]): 10
Giant foxtail plant response rating (giant foxtail; [7]): 10
Giant foxtail plant response rating (giant foxtail; [8]): 7
Morningglory plant response rating (morningglory; [1]): 3
Plant response rating, Morningglory (morningglory; [3]): 7
Plant response rating, Morningglory (morningglory; [5]): 0
Plant response rating, Morningglory (morningglory; [6]): 0
Morningglory plant response rating (morningglory; [7]): 0
Morningglory plant response rating (morningglory; [8]): 5
Redroot pigweed plant response rating (pigweed; [1]): 0
Plant response rating, Redroot pigweed (pigweed; [3]): 6
Plant response rating, Redroot pigweed (pigweed; [5]): 2
Plant response rating, Redroot pigweed (pigweed; [6]): 7
Redroot pigweed plant response rating (pigweed; [7]): 10
Redroot pigweed plant response rating (pigweed; [8]): 0
Rape plant response rating (rape; [1]): 0
Plant response rating, Rape (rape; [3]): 0
Plant response rating, Rape (rape; [5]): 0
Plant response rating, Rape (rape; [6]): 0
Rape plant response rating (rape; [7]): 5
Rape plant response rating (rape; [8]): 0
Soybean plant response rating (soybean; [1]): 1
Plant response rating, Soybean (soybean; [3]): 2
Plant response rating, Soybean (soybean; [5]): 0
Plant response rating, Soybean (soybean; [6]): 0
Soybean plant response rating (soybean; [7]): 0
Soybean plant response rating (soybean; [8]): 1
Sugarbeets plant response rating (sugar beet; [1]): 0
Plant response rating, Sugarbeets (sugar beet; [3]): 0
Plant response rating, Sugarbeets (sugar beet; [5]): 0
Plant response rating, Sugarbeets (sugar beet; [6]): 3
Sugarbeets plant response rating (sugar beet; [7]): 7
Sugarbeets plant response rating (sugar beet; [8]): 0
Velvetleaf plant response rating (velvetleaf; [1]): 0
Plant response rating, Velvetleaf (velvetleaf; [3]): 2
Plant response rating, Velvetleaf (velvetleaf; [5]): 0
Plant response rating, Velvetleaf (velvetleaf; [6]): 3
Velvetleaf plant response rating (velvetleaf; [7]): 5
Velvetleaf plant response rating (velvetleaf; [8]): 0
Wheat plant response rating (wheat; [1]): 0
Plant response rating, Wheat (wheat; [5]): 0
Plant response rating, Wheat (wheat; [6]): 3
Wheat plant response rating (wheat; [7]): 8
Wheat plant response rating (wheat; [8]): 0
Wild oats plant response rating (wild oat; [1]): 0
Plant response rating, Wild oats (wild oat; [5]): 2
Plant response rating, Wild oats (wild oat; [6]): 9
Wild oats plant response rating (wild oat; [7]): 10
Wild oats plant response rating (wild oat; [8]): 0
Nutsedge plant response rating (purple nutsedge; [1]): 0
Plant response rating, Nutsedge (purple nutsedge; [3]): 0
Plant response rating, Nutsedge (purple nutsedge; [5]): 0
Plant response rating, Nutsedge (purple nutsedge; [6]): 0
Nutsedge plant response rating (purple nutsedge; [7]): 0
Nutsedge plant response rating (purple nutsedge; [8]): 0
Rice plant response rating (rice; [9]): 0
Plant response rating, Rice (0 to 10 scale, 0 is no effect, 10 is complete control) (rice; [10]): 0
Rice plant response rating (0 to 10 scale, 0 is no effect, 10 is complete control) (rice; [11]): 0
Rice plant response rating (rice; [12]): 0
S. Flatsedge plant response rating (smallflower flatsedge; [9]): 0
Plant response rating, S. Flatsedge (0 to 10 scale, 0 is no effect, 10 is complete control) (smallflower flatsedge; [10]): 0
S. Flatsedge plant response rating (0 to 10 scale, 0 is no effect, 10 is complete control) (smallflower flatsedge; [11]): 0
S. Flatsedge plant response rating (smallflower flatsedge; [12]): 0
Ducksalad plant response rating (duck salad; [9]): 0
Plant response rating, Ducksalad (0 to 10 scale, 0 is no effect, 10 is complete control) (duck salad; [10]): 0
Ducksalad plant response rating (0 to 10 scale, 0 is no effect, 10 is complete control) (duck salad; [11]): 0
Ducksalad plant response rating (duck salad; [12]): 0
Barnyardgrass plant response rating (bamyardgrass; [9]): 0
Plant response rating, Barnyardgrass (0 to 10 scale, 0 is no effect, 10 is complete control) (bamyardgrass; [10]): 0
Barnyardgrass plant response rating (0 to 10 scale, 0 is no effect, 10 is complete control) (bamyardgrass; [11]): 0
Barnyardgrass plant response rating (bamyardgrass; [12]): 0
